This is an account of results in PubChem BioAssay AID1195 (EPA DSSTox, 2008).

The test system of this data set is human maximum recommended daily dose, FDA database. In words: DSSTox (FDAMDD) FDA Maximum (Recommended) Daily Dose Database. Conditions: active compounds read low. The gist of the method:
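MRDD values come from clinical trials with daily oral dosing, usually for 3–12 months, for the average adult, in mg/day converted to mg/kg-bw/day assuming 60 kg. Antineoplastic mg/m2 doses are divided by 37. Activity score maps log10(1/MRDD mmol) onto 1–100.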

The mark [1] stands for this setting: TherapeuticCategory: antibacterial.
[2] abbreviates: TherapeuticCategory: anticonvulsant.
Setting [3] is: TherapeuticCategory: antihistaminic.

As for `Cc1cc2nc3c(=O)[nH]c(=O)nc-3n(C[C@H](O)[C@H](O)[C@H](O)COP(=O)(O)O)c2cc1C`, the maximum recommended daily dose (mmol/kg-bw/day) (TherapeuticCategory: enzyme cofactor vitamin) is 0.0011.

For the molecule `CN1[C@@H](CC(=O)c2ccccc2)CCC[C@H]1C[C@H](O)c1ccccc1`, under “TherapeuticCategory: respiratory stimulant”, the maximum recommended daily dose (mmol/kg-bw/day) is 0.000495.

Consider `Cn1c(=O)c2c(ncn2CCO)n(C)c1=O`, for which, where the note is “TherapeuticCategory: bronchodilator”, the maximum recommended daily dose (mmol/kg-bw/day) was 0.0372.

For `CC(C)(C)NCC(O)COc1cccc2c1CCC(=O)N2` (centres undefined), the maximum recommended daily dose (mmol/kg-bw/day) (TherapeuticCategory: antihypertensive, antianginal, antiarrhythmic, antiglaucomic) was 0.000571.

Regarding `CCCCC(C)(O)C/C=C/[C@H]1[C@H](O)CC(=O)[C@@H]1CCCCCCC(=O)OC` (some centres undefined), the maximum recommended daily dose (mmol/kg-bw/day) (TherapeuticCategory: antiulcerative) was 3.48e-05.

For the molecule `CC(CC(C)(C)O)OC(O)C(Cl)(Cl)Cl` (centres undefined), the maximum recommended daily dose (mmol/kg-bw/day) (TherapeuticCategory: hypnotic) was 0.101.

With `N=C(N)N`, the maximum recommended daily dose (mmol/kg-bw/day) (TherapeuticCategory: none) was 0.846.

`NCCC(O)(P(=O)(O)O)P(=O)(O)O`: under “TherapeuticCategory: antipagetic”, the maximum recommended daily dose (mmol/kg-bw/day) was 0.00638.

`N[C@@H](Cc1cc(I)c(Oc2ccc(O)c(I)c2)c(I)c1)C(=O)O`: under “TherapeuticCategory: thyroid hormone”, the maximum recommended daily dose (mmol/kg-bw/day) is 2.57e-06.

As for `CCOC(=O)Oc1c(OC)cc(C(=O)O[C@@H]2C[C@@H]3CN4CCc5c([nH]c6cc(OC)ccc56)[C@H]4C[C@@H]3[C@H](C(=O)OC)[C@H]2OC)cc1OC`, the maximum recommended daily dose (mmol/kg-bw/day) (TherapeuticCategory: antihypertensive) was 7.5e-05.

On to `OCc1ccccc1`, for which the maximum recommended daily dose (mmol/kg-bw/day) (TherapeuticCategory: none) was 0.0462.

As to `CC[C@@H](CO)NCCN[C@@H](CC)CO`, the maximum recommended daily dose (mmol/kg-bw/day) under setting [1] was 0.122.

As for `CCN(CC)C(=O)c1ccc(O)c(OC)c1`, the maximum recommended daily dose (mmol/kg-bw/day) (TherapeuticCategory: central and respiratory stimulant) was 0.0187.

As for `NC[C@H](O)c1ccc(O)c(O)c1`, the maximum recommended daily dose (mmol/kg-bw/day) (TherapeuticCategory: adrenergic, antihypotensive) was 0.000394.

For the molecule `C[C@]12CC[C@H]3[C@@H](CC[C@@]45O[C@@H]4C(O)=C(C#N)C[C@]35C)[C@@H]1CC[C@@H]2O`, the maximum recommended daily dose (mmol/kg-bw/day) (TherapeuticCategory: adrenocortical suppressant, treatment of breast cancer) is 0.0243.

Consider `Nc1ncnc2c1ncn2[C@@H]1O[C@H](CO)[C@@H](O)[C@H]1O`, for which the maximum recommended daily dose (mmol/kg-bw/day) (TherapeuticCategory: antiarrhythmic) is 0.00748.

With `CCN1C(=O)NC(c2ccccc2)C1=O` (centres undefined), under setting [2], the maximum recommended daily dose (mmol/kg-bw/day) was 0.245.

Take `CC(=O)OCC1=C(C(=O)O)N2C(=O)[C@@H](NC(=O)[C@H](N)c3ccccc3)[C@H]2SC1`: under setting [1], the maximum recommended daily dose (mmol/kg-bw/day) is 0.0821.

With `COc1ccccc1O`, where the note is “TherapeuticCategory: expectorant”, the maximum recommended daily dose (mmol/kg-bw/day) was 0.0902.

Regarding `NC[C@@H]1O[C@H](O[C@H]2[C@@H](O)[C@H](O[C@@H]3[C@@H](O)[C@H](N)C[C@H](N)[C@H]3O[C@H]3O[C@H](CO)[C@@H](O)[C@H](O)[C@H]3N)O[C@@H]2CO)[C@H](N)[C@@H](O)[C@@H]1O`, for the setting “TherapeuticCategory: antibacterial, antiamebic”, the maximum recommended daily dose (mmol/kg-bw/day) was 0.0569.

As to `CC(=O)OCC(=O)[C@@]1(O)CC[C@H]2[C@@H]3CCC4=CC(=O)CC[C@]4(C)[C@H]3C(=O)C[C@@]21C`, where the note is “TherapeuticCategory: glucocorticoid”, the maximum recommended daily dose (mmol/kg-bw/day) is 0.0124.

On to `CNCCCC1c2ccccc2C=Cc2ccccc21`, for which the maximum recommended daily dose (mmol/kg-bw/day) (TherapeuticCategory: antidepressant) was 0.0038.

Regarding `OC1(c2ccc(Cl)cc2)c2ccccc2C2=NCCN21` (centres undefined), where the note is “TherapeuticCategory: anorexic”, the maximum recommended daily dose (mmol/kg-bw/day) is 0.000117.

As to `Cc1cc(=O)[nH]c(=S)[nH]1`, where the note is “TherapeuticCategory: thyroid inhibitor”, the maximum recommended daily dose (mmol/kg-bw/day) was 0.0703.

Take `CC(C)NCC(O)COc1ccc(CC(N)=O)cc1` (centres undefined): the maximum recommended daily dose (mmol/kg-bw/day) (TherapeuticCategory: antihypertensive, antianginal, antiarrhythmic) is 0.0125.

`N[C@@H](Cc1cc(I)c(Oc2cc(I)c(O)c(I)c2)c(I)c1)C(=O)O`: the maximum recommended daily dose (mmol/kg-bw/day) (TherapeuticCategory: hyperthyroidism) was 1.07e-05.

As for `C[C@]12C=CC(=O)C=C1CC[C@@H]1[C@@H]2CC[C@@]2(C)[C@H]1CC[C@]2(C)O`, the maximum recommended daily dose (mmol/kg-bw/day) (TherapeuticCategory: androgen) was 0.000222.

Take `NCC1(CC(=O)O)CCCCC1`: the maximum recommended daily dose (mmol/kg-bw/day) under setting [2] is 0.117.

On to `CCCNC(=O)NS(=O)(=O)c1ccc(Cl)cc1`, for which the maximum recommended daily dose (mmol/kg-bw/day) (TherapeuticCategory: antidiabetic) is 0.0452.

On to `CCOC(=O)C1(c2ccccc2)CCN(CCC(C#N)(c2ccccc2)c2ccccc2)CC1`, for which, for the setting “TherapeuticCategory: antiperistaltic, antidiarrheal”, the maximum recommended daily dose (mmol/kg-bw/day) is 0.000736.

As to `CC[C@@H](C(N)=O)N1CCCC1=O`, the maximum recommended daily dose (mmol/kg-bw/day) under setting [2] is 0.353.

Regarding `COC(=O)Nc1nc2ccc(C(=O)c3ccc(F)cc3)cc2[nH]1`, the maximum recommended daily dose (mmol/kg-bw/day) (TherapeuticCategory: anthelmintic) was 0.00533.

As to `N[C@@H](CS)C(=O)O`, the maximum recommended daily dose (mmol/kg-bw/day) (TherapeuticCategory: none) was 0.825.

Turning to `O=C(O)CCC(=O)c1ccc(-c2ccccc2)cc1`, the maximum recommended daily dose (mmol/kg-bw/day) (TherapeuticCategory: anti inflammatory) was 0.059.

Turning to `Oc1cc(O)c2c(c1)O[C@H](c1ccc(O)c(O)c1)[C@@H](O)C2`, the maximum recommended daily dose (mmol/kg-bw/day) (TherapeuticCategory: hepatoprotectant, antidiarrheal) was 0.115.

For `CCC[C@@H]1C[C@@H](C(=O)N[C@@H]([C@H]2O[C@H](SC)[C@H](O)[C@@H](O)[C@H]2O)[C@@H](C)O)N(C)C1`, the maximum recommended daily dose (mmol/kg-bw/day) under setting [1] was 0.0819.

As to `O=c1[nH]cnc2c1ncn2[C@H]1CC[C@@H](CO)O1`, the maximum recommended daily dose (mmol/kg-bw/day) (TherapeuticCategory: antiviral) is 0.0282.

In the case of `CCC(=O)O[C@@H]1CC(=O)O[C@H](C)C/C=C/C=C/[C@H](O[C@@H]2CC[C@H](N(C)C)[C@@H](C)O2)[C@H](C)C[C@H](CC=O)[C@H](O[C@@H]2O[C@H](C)[C@@H](O[C@H]3C[C@@](C)(O)[C@@H](O)[C@H](C)O3)[C@H](N(C)C)[C@H]2O)[C@H]1OC`, the maximum recommended daily dose (mmol/kg-bw/day) under setting [1] was 0.0742.

Regarding `CN(C)CCN(Cc1ccccc1)c1ccccn1`, under setting [3], the maximum recommended daily dose (mmol/kg-bw/day) was 0.0392.

`Cc1c(OCC(F)(F)F)ccnc1CS(=O)c1nc2ccccc2[nH]1` (centres undefined): the maximum recommended daily dose (mmol/kg-bw/day) (TherapeuticCategory: antiulcerative, anti infective) is 0.00135.

As for `CC(=O)O[C@]1(C(C)=O)CC[C@H]2[C@@H]3C=C(Cl)C4=CC(=O)[C@@H]5C[C@@H]5[C@]4(C)[C@H]3CC[C@@]21C`, the maximum recommended daily dose (mmol/kg-bw/day) (TherapeuticCategory: antiandrogen) is 0.012.

For `CC(=O)O[C@H]1C[C@@]2(C)[C@@H](C[C@@H](O)[C@H]3[C@@]4(C)CC[C@@H](O)[C@@H](C)[C@@H]4CC[C@@]32C)/C1=C(\CCC=C(C)C)C(=O)O`, the maximum recommended daily dose (mmol/kg-bw/day) under setting [1] is 0.0484.

Regarding `COc1cc([C@@H]2c3cc4c(cc3C(O[C@@H]3O[C@@H]5COC(c6cccs6)O[C@H]5[C@H](O)[C@H]3O)C3COC(=O)[C@@H]32)OCO4)cc(OC)c1O` (some centres undefined), the maximum recommended daily dose (mmol/kg-bw/day) (TherapeuticCategory: antineoplastic) was 0.0107.

Take `CN[C@H]1[C@@H](O)[C@H](O[C@H]2O[C@H]([C@H](C)N)CC[C@H]2N)[C@@H](N)[C@H](O)[C@@H]1OC`: the maximum recommended daily dose (mmol/kg-bw/day) under setting [1] is 0.0191.

Consider `OC[C@@H](O)[C@@H](O)[C@H](O)[C@@H](O)CO`, for which the maximum recommended daily dose (mmol/kg-bw/day) (TherapeuticCategory: cathartic) was 4.57.

In the case of `C[C@@](Cc1ccc(O)c(O)c1)(NN)C(=O)O`, the maximum recommended daily dose (mmol/kg-bw/day) (TherapeuticCategory: antiparkinsonian) was 0.00368.

On to `C[C@@H]1O[C@@H](O[C@@H]2C=C3CC[C@@H]4[C@H](CC[C@]5(C)[C@@H](c6ccc(=O)oc6)CC[C@]45O)[C@@]3(C)CC2)[C@H](O)[C@H](O)[C@H]1O`, for which the maximum recommended daily dose (mmol/kg-bw/day) (TherapeuticCategory: cardiotonic) was 7.86e-05.

For the molecule `CN1CCC(=C2c3ccccc3CC(=O)c3sccc32)CC1`, where the note is “TherapeuticCategory: antiasthmatic”, the maximum recommended daily dose (mmol/kg-bw/day) is 0.000108.

Turning to `CN(C)CCOC(c1ccc(Cl)cc1)c1ccccn1` (centres undefined), the maximum recommended daily dose (mmol/kg-bw/day) under setting [3] is 0.00138.

Take `COC1=CC(=O)C[C@@H](C)[C@]12Oc1c(Cl)c(OC)cc(OC)c1C2=O`: the maximum recommended daily dose (mmol/kg-bw/day) (TherapeuticCategory: antifungal) was 0.0354.

`C[C@]12CC[C@H](O)CC1=CC[C@@H]1[C@@H]2CC[C@]2(C)C(=O)CC[C@@H]12`: the maximum recommended daily dose (mmol/kg-bw/day) (TherapeuticCategory: androgen) was 0.0115.

Take `O=C(c1ccccc1)c1ccc2n1CCC2C(=O)O` (centres undefined): the maximum recommended daily dose (mmol/kg-bw/day) (TherapeuticCategory: analgesic, anti inflammatory) is 0.00979.

Regarding `CCCCNC(=O)OCC(C)(CCC)COC(N)=O` (centres undefined), the maximum recommended daily dose (mmol/kg-bw/day) (TherapeuticCategory: anxiolytic) was 0.182.

As for `Cc1nc(NS(=O)(=O)c2ccc(N)cc2)oc1C`, the maximum recommended daily dose (mmol/kg-bw/day) under setting [1] was 0.125.

Regarding `Nc1ccc(C(=O)O)c(O)c1`, the maximum recommended daily dose (mmol/kg-bw/day) under setting [1] is 1.31.

For the molecule `CC1=C(/C=C/C(C)=C/C=C/C(C)=C/C=C/C=C(C)/C=C/C=C(C)/C=C/C2=C(C)C(=O)CCC2(C)C)C(C)(C)CCC1=O`, the maximum recommended daily dose (mmol/kg-bw/day) (TherapeuticCategory: antioxidant) was 0.0443.

For the molecule `C[C@](N)(Cc1ccc(O)cc1)C(=O)O`, the maximum recommended daily dose (mmol/kg-bw/day) (TherapeuticCategory: tyrosine hydroxylase inhibitor) is 0.342.

Turning to `CC/C(=C(/CC)c1ccc(O)cc1)c1ccc(O)cc1`, the maximum recommended daily dose (mmol/kg-bw/day) (TherapeuticCategory: estrogen) was 0.0373.

For `CC12C=CC(C(=O)O[C@H]3CC[C@H]4[C@@H]5CCC6=CC(=O)CC[C@@H]6[C@H]5CC[C@]34C)(CC1)CC2`, for the setting “TherapeuticCategory: anabolic”, the maximum recommended daily dose (mmol/kg-bw/day) is 0.00788.

On to `COc1cc(C)c(/C=C/C(C)=C/C=C/C(C)=C/C(=O)O)c(C)c1C`, for which the maximum recommended daily dose (mmol/kg-bw/day) (TherapeuticCategory: antipsoriatic) is 0.00383.

Consider `NC(=O)[C@@H]1CCCN1C(=O)[C@H](Cc1cnc[nH]1)NC(=O)[C@@H]1CCC(=O)N1`, for which the maximum recommended daily dose (mmol/kg-bw/day) (TherapeuticCategory: prohormone) is 2.3e-05.

`COc1cc2c3cc1Oc1cc(ccc1O)C[C@@H]1c4c(cc(OC)c(O)c4Oc4ccc(cc4)C[C@@H]3N(C)CC2)CC[N+]1(C)C`: under “TherapeuticCategory: skeletal muscle relaxant, diagnostic aid”, the maximum recommended daily dose (mmol/kg-bw/day) is 0.000979.

With `CC/C=C(\C)C1(CC)C(=O)NC(=O)NC1=O`, the maximum recommended daily dose (mmol/kg-bw/day) (TherapeuticCategory: sedative, hypnotic) is 0.0148.

Consider `COc1cc(C(=O)NCc2ccc(OCCN(C)C)cc2)cc(OC)c1OC`, for which the maximum recommended daily dose (mmol/kg-bw/day) (TherapeuticCategory: antiemetic) was 0.043.
